#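 Results reflect a 48-hour exposure of cells in 96-well plates to compound at five concentrations. The concentration for full growth arrest is given as TGI.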
# Test system: NCI-H23 lung
# Assay: growth of human tumour cells (NCI), 48 h
row,Compound,TGI [µM]
1,CC1=C2CCCC2=C/C(=N/Nc2ccc([N+](=O)[O-])cc2[N+](=O)[O-])CC1,> 100
2,COc1ccc2oc(-c3cccnc3)cc(=O)c2c1,> 100
3,COC(=O)CN(C)P(=O)(N1CC1)N1CC1,> 100
4,O=C(NCCCCN=c1cccccc1NCCCCNC(=O)OCc1ccccc1)OCc1ccccc1,48.8

# Test system: NCI-H460 lung
# Assay: growth of human tumour cells (NCI), 48 h
row,Compound,TGI [µM]
1,CC1=C2CCCC2=C/C(=N/Nc2ccc([N+](=O)[O-])cc2[N+](=O)[O-])CC1,> 100
2,COc1ccc2oc(-c3cccnc3)cc(=O)c2c1,> 100
3,O=C(NCCCCN=c1cccccc1NCCCCNC(=O)OCc1ccccc1)OCc1ccccc1,26.4

# Test system: NCI-H522 lung
# Assay: growth of human tumour cells (NCI), 48 h
row,Compound,TGI [µM]
1,CC1=C2CCCC2=C/C(=N/Nc2ccc([N+](=O)[O-])cc2[N+](=O)[O-])CC1,> 100
2,COC(=O)CN(C)P(=O)(N1CC1)N1CC1,> 100
3,O=C(NCCCCN=c1cccccc1NCCCCNC(=O)OCc1ccccc1)OCc1ccccc1,36.8

# Test system: OVCAR-3 ovarian
# Assay: growth of human tumour cells (NCI), 48 h
row,Compound,TGI [µM]
1,CC1=C2CCCC2=C/C(=N/Nc2ccc([N+](=O)[O-])cc2[N+](=O)[O-])CC1,> 100
2,COc1ccc2oc(-c3cccnc3)cc(=O)c2c1,> 100
3,O=C(NCCCCN=c1cccccc1NCCCCNC(=O)OCc1ccccc1)OCc1ccccc1,29.5

# Test system: OVCAR-4 ovarian
# Assay: growth of human tumour cells (NCI), 48 h
row,Compound,TGI [µM]
1,CC1=C2CCCC2=C/C(=N/Nc2ccc([N+](=O)[O-])cc2[N+](=O)[O-])CC1,> 100
2,COc1ccc2oc(-c3cccnc3)cc(=O)c2c1,> 100
3,COC(=O)CN(C)P(=O)(N1CC1)N1CC1,> 100
4,O=C(NCCCCN=c1cccccc1NCCCCNC(=O)OCc1ccccc1)OCc1ccccc1,57.5

# Test system: OVCAR-5 ovarian
# Assay: growth of human tumour cells (NCI), 48 h
row,Compound,TGI [µM]
1,CC1=C2CCCC2=C/C(=N/Nc2ccc([N+](=O)[O-])cc2[N+](=O)[O-])CC1,> 100
2,COC(=O)CN(C)P(=O)(N1CC1)N1CC1,> 100
3,O=C(NCCCCN=c1cccccc1NCCCCNC(=O)OCc1ccccc1)OCc1ccccc1,41.9

# Test system: OVCAR-8 ovarian
# Assay: growth of human tumour cells (NCI), 48 h
row,Compound,TGI [µM]
1,CC1=C2CCCC2=C/C(=N/Nc2ccc([N+](=O)[O-])cc2[N+](=O)[O-])CC1,> 100
2,COC(=O)CN(C)P(=O)(N1CC1)N1CC1,> 100
3,O=C(NCCCCN=c1cccccc1NCCCCNC(=O)OCc1ccccc1)OCc1ccccc1,47.7

# Test system: RPMI-8226 leukemia
# Assay: growth of human tumour cells (NCI), 48 h
row,Compound,TGI [µM]
1,CC1=C2CCCC2=C/C(=N/Nc2ccc([N+](=O)[O-])cc2[N+](=O)[O-])CC1,> 100
2,COc1ccc2oc(-c3cccnc3)cc(=O)c2c1,> 100
3,COC(=O)CN(C)P(=O)(N1CC1)N1CC1,> 100
4,O=C(NCCCCN=c1cccccc1NCCCCNC(=O)OCc1ccccc1)OCc1ccccc1,32.8

# Test system: RXF 393 renal
# Assay: growth of human tumour cells (NCI), 48 h
row,Compound,TGI [µM]
1,CC1=C2CCCC2=C/C(=N/Nc2ccc([N+](=O)[O-])cc2[N+](=O)[O-])CC1,> 100
2,COc1ccc2oc(-c3cccnc3)cc(=O)c2c1,> 100
3,COC(=O)CN(C)P(=O)(N1CC1)N1CC1,> 100
4,O=C(NCCCCN=c1cccccc1NCCCCNC(=O)OCc1ccccc1)OCc1ccccc1,40.4

# Test system: RXF-631 renal
# Assay: growth of human tumour cells (NCI), 48 h
row,Compound,TGI [µM]
1,COc1ccc2oc(-c3cccnc3)cc(=O)c2c1,> 100
2,COC(=O)CN(C)P(=O)(N1CC1)N1CC1,> 100
3,O=C(NCCCCN=c1cccccc1NCCCCNC(=O)OCc1ccccc1)OCc1ccccc1,26.1

# Test system: SF-268 CNS
# Assay: growth of human tumour cells (NCI), 48 h
row,Compound,TGI [µM]
1,CC1=C2CCCC2=C/C(=N/Nc2ccc([N+](=O)[O-])cc2[N+](=O)[O-])CC1,> 100
2,COc1ccc2oc(-c3cccnc3)cc(=O)c2c1,> 100
3,COC(=O)CN(C)P(=O)(N1CC1)N1CC1,> 100
4,O=C(NCCCCN=c1cccccc1NCCCCNC(=O)OCc1ccccc1)OCc1ccccc1,63.8

# Test system: SF-295 CNS
# Assay: growth of human tumour cells (NCI), 48 h
row,Compound,TGI [µM]
1,CC1=C2CCCC2=C/C(=N/Nc2ccc([N+](=O)[O-])cc2[N+](=O)[O-])CC1,> 100
2,COc1ccc2oc(-c3cccnc3)cc(=O)c2c1,> 100
3,COC(=O)CN(C)P(=O)(N1CC1)N1CC1,> 100
4,O=C(NCCCCN=c1cccccc1NCCCCNC(=O)OCc1ccccc1)OCc1ccccc1,26.9

# Test system: SF-539 CNS
# Assay: growth of human tumour cells (NCI), 48 h
row,Compound,TGI [µM]
1,CC1=C2CCCC2=C/C(=N/Nc2ccc([N+](=O)[O-])cc2[N+](=O)[O-])CC1,> 100
2,COC(=O)CN(C)P(=O)(N1CC1)N1CC1,> 100
3,O=C(NCCCCN=c1cccccc1NCCCCNC(=O)OCc1ccccc1)OCc1ccccc1,31.8

# Test system: SK-MEL-2 melanoma
# Assay: growth of human tumour cells (NCI), 48 h
row,Compound,TGI [µM]
1,CC1=C2CCCC2=C/C(=N/Nc2ccc([N+](=O)[O-])cc2[N+](=O)[O-])CC1,> 100
2,COc1ccc2oc(-c3cccnc3)cc(=O)c2c1,> 100
3,COC(=O)CN(C)P(=O)(N1CC1)N1CC1,> 100
4,O=C(NCCCCN=c1cccccc1NCCCCNC(=O)OCc1ccccc1)OCc1ccccc1,36.9

# Test system: SK-MEL-28 melanoma
# Assay: growth of human tumour cells (NCI), 48 h
row,Compound,TGI [µM]
1,CC1=C2CCCC2=C/C(=N/Nc2ccc([N+](=O)[O-])cc2[N+](=O)[O-])CC1,> 100
2,COc1ccc2oc(-c3cccnc3)cc(=O)c2c1,> 100
3,COC(=O)CN(C)P(=O)(N1CC1)N1CC1,> 100
4,O=C(NCCCCN=c1cccccc1NCCCCNC(=O)OCc1ccccc1)OCc1ccccc1,39.6

# Test system: SK-MEL-5 melanoma
# Assay: growth of human tumour cells (NCI), 48 h
row,Compound,TGI [µM]
1,CC1=C2CCCC2=C/C(=N/Nc2ccc([N+](=O)[O-])cc2[N+](=O)[O-])CC1,> 100
2,COC(=O)CN(C)P(=O)(N1CC1)N1CC1,> 100
3,O=C(NCCCCN=c1cccccc1NCCCCNC(=O)OCc1ccccc1)OCc1ccccc1,33.1

# Test system: SK-OV-3 ovarian
# Assay: growth of human tumour cells (NCI), 48 h
row,Compound,TGI [µM]
1,CC1=C2CCCC2=C/C(=N/Nc2ccc([N+](=O)[O-])cc2[N+](=O)[O-])CC1,> 100
2,COC(=O)CN(C)P(=O)(N1CC1)N1CC1,> 100
3,O=C(NCCCCN=c1cccccc1NCCCCNC(=O)OCc1ccccc1)OCc1ccccc1,45.5

# Test system: SN12C renal
# Assay: growth of human tumour cells (NCI), 48 h
row,Compound,TGI [µM]
1,CC1=C2CCCC2=C/C(=N/Nc2ccc([N+](=O)[O-])cc2[N+](=O)[O-])CC1,> 100
2,COc1ccc2oc(-c3cccnc3)cc(=O)c2c1,> 100
3,COC(=O)CN(C)P(=O)(N1CC1)N1CC1,> 100
4,O=C(NCCCCN=c1cccccc1NCCCCNC(=O)OCc1ccccc1)OCc1ccccc1,51.6

# Test system: SNB-19 CNS
# Assay: growth of human tumour cells (NCI), 48 h
row,Compound,TGI [µM]
1,CC1=C2CCCC2=C/C(=N/Nc2ccc([N+](=O)[O-])cc2[N+](=O)[O-])CC1,> 100
2,COc1ccc2oc(-c3cccnc3)cc(=O)c2c1,> 100
3,COC(=O)CN(C)P(=O)(N1CC1)N1CC1,> 100
4,O=C(NCCCCN=c1cccccc1NCCCCNC(=O)OCc1ccccc1)OCc1ccccc1,79.8

# Test system: SNB-75 CNS
# Assay: growth of human tumour cells (NCI), 48 h
row,Compound,TGI [µM]
1,CC1=C2CCCC2=C/C(=N/Nc2ccc([N+](=O)[O-])cc2[N+](=O)[O-])CC1,> 100
2,COc1ccc2oc(-c3cccnc3)cc(=O)c2c1,> 100
3,COC(=O)CN(C)P(=O)(N1CC1)N1CC1,> 100
4,O=C(NCCCCN=c1cccccc1NCCCCNC(=O)OCc1ccccc1)OCc1ccccc1,39.6

# Test system: SNB-78 CNS
# Assay: growth of human tumour cells (NCI), 48 h
row,Compound,TGI [µM]
1,CC1=C2CCCC2=C/C(=N/Nc2ccc([N+](=O)[O-])cc2[N+](=O)[O-])CC1,> 100
2,COC(=O)CN(C)P(=O)(N1CC1)N1CC1,> 100
3,O=C(NCCCCN=c1cccccc1NCCCCNC(=O)OCc1ccccc1)OCc1ccccc1,71.1

# Test system: SR leukemia
# Assay: growth of human tumour cells (NCI), 48 h
row,Compound,TGI [µM]
1,CC1=C2CCCC2=C/C(=N/Nc2ccc([N+](=O)[O-])cc2[N+](=O)[O-])CC1,> 100

# Test system: SW-620 colon
# Assay: growth of human tumour cells (NCI), 48 h
row,Compound,TGI [µM]
1,CC1=C2CCCC2=C/C(=N/Nc2ccc([N+](=O)[O-])cc2[N+](=O)[O-])CC1,> 100
2,COC(=O)CN(C)P(=O)(N1CC1)N1CC1,> 100
3,O=C(NCCCCN=c1cccccc1NCCCCNC(=O)OCc1ccccc1)OCc1ccccc1,41.7

# Test system: TK-10 renal
# Assay: growth of human tumour cells (NCI), 48 h
row,Compound,TGI [µM]
1,CC1=C2CCCC2=C/C(=N/Nc2ccc([N+](=O)[O-])cc2[N+](=O)[O-])CC1,> 100
2,COC(=O)CN(C)P(=O)(N1CC1)N1CC1,> 100
3,O=C(NCCCCN=c1cccccc1NCCCCNC(=O)OCc1ccccc1)OCc1ccccc1,53.9

# Test system: U251 CNS
# Assay: growth of human tumour cells (NCI), 48 h
row,Compound,TGI [µM]
1,CC1=C2CCCC2=C/C(=N/Nc2ccc([N+](=O)[O-])cc2[N+](=O)[O-])CC1,> 100
2,COc1ccc2oc(-c3cccnc3)cc(=O)c2c1,> 100
3,COC(=O)CN(C)P(=O)(N1CC1)N1CC1,> 100
4,O=C(NCCCCN=c1cccccc1NCCCCNC(=O)OCc1ccccc1)OCc1ccccc1,32.1

# Test system: UACC-257 melanoma
# Assay: growth of human tumour cells (NCI), 48 h
row,Compound,TGI [µM]
1,CC1=C2CCCC2=C/C(=N/Nc2ccc([N+](=O)[O-])cc2[N+](=O)[O-])CC1,> 100
2,COc1ccc2oc(-c3cccnc3)cc(=O)c2c1,> 100
3,COC(=O)CN(C)P(=O)(N1CC1)N1CC1,> 100
4,O=C(NCCCCN=c1cccccc1NCCCCNC(=O)OCc1ccccc1)OCc1ccccc1,29.3

# Test system: UACC-62 melanoma
# Assay: growth of human tumour cells (NCI), 48 h
row,Compound,TGI [µM]
1,CC1=C2CCCC2=C/C(=N/Nc2ccc([N+](=O)[O-])cc2[N+](=O)[O-])CC1,> 100
2,COc1ccc2oc(-c3cccnc3)cc(=O)c2c1,> 100
3,COC(=O)CN(C)P(=O)(N1CC1)N1CC1,> 100
4,O=C(NCCCCN=c1cccccc1NCCCCNC(=O)OCc1ccccc1)OCc1ccccc1,37.5

# Test system: UO-31 renal
# Assay: growth of human tumour cells (NCI), 48 h
row,Compound,TGI [µM]
1,CC1=C2CCCC2=C/C(=N/Nc2ccc([N+](=O)[O-])cc2[N+](=O)[O-])CC1,> 100
2,COc1ccc2oc(-c3cccnc3)cc(=O)c2c1,69.2
3,COC(=O)CN(C)P(=O)(N1CC1)N1CC1,> 100
4,O=C(NCCCCN=c1cccccc1NCCCCNC(=O)OCc1ccccc1)OCc1ccccc1,21.4

# Test system: XF 498 CNS
# Assay: growth of human tumour cells (NCI), 48 h
row,Compound,TGI [µM]
1,CC1=C2CCCC2=C/C(=N/Nc2ccc([N+](=O)[O-])cc2[N+](=O)[O-])CC1,> 100
2,COc1ccc2oc(-c3cccnc3)cc(=O)c2c1,> 100
3,O=C(NCCCCN=c1cccccc1NCCCCNC(=O)OCc1ccccc1)OCc1ccccc1,18.6

# From PubChem BioAssay (NCI)
